Several values for one entry are separate records, joined by “and”; a condition that tells them apart may be missing. Equal values may be shown once.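 Cultured in 96-well plates, cells were exposed to test compound for 48 hours across five concentrations. GI50 is the concentration that inhibits growth by half. TGI is the concentration that stops growth completely.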
Tests used:
Experiment in all cases: DTP human tumour cell line panel, 48 h
KM12 colon = test system: KM12 colon
COLO 205 colon = test system: COLO 205 colon
SK-MEL-2 melanoma = test system: SK-MEL-2 melanoma
NCI-H522 lung = test system: NCI-H522 lung
OVCAR-5 ovarian = test system: OVCAR-5 ovarian
SF-268 CNS = test system: SF-268 CNS
SN12C renal = test system: SN12C renal
SK-MEL-5 melanoma = test system: SK-MEL-5 melanoma
ACHN renal = test system: ACHN renal
HCT-15 colon = test system: HCT-15 colon

Structure (SMILES)	GI50 (KM12 colon)	GI50 (COLO 205 colon)	TGI (SK-MEL-2 melanoma) [µM]	GI50 (NCI-H522 lung)	GI50 (OVCAR-5 ovarian) [µM]	TGI (OVCAR-5 ovarian) [µM]	GI50 (SF-268 CNS) [µM]	GI50 (SN12C renal)	GI50 (SK-MEL-5 melanoma) [µM]	GI50 (ACHN renal)	TGI (HCT-15 colon) [µM]	TGI (KM12 colon) [µM]	TGI (COLO 205 colon) [µM]	GI50 (SK-MEL-2 melanoma) [µM]	TGI (NCI-H522 lung) [µM]	TGI (SF-268 CNS) [µM]	TGI (SN12C renal) [µM]	TGI (SK-MEL-5 melanoma) [µM]	TGI (ACHN renal) [µM]	GI50 (HCT-15 colon) [µM]
COc1ccc(C[C@@H]2NC[C@@H](O)[C@@H]2OC(C)=O)cc1	3.53 µM	2.04 µM	0.3	2.06 µM	14.1	> 100	4.37	3.19 µM	0.456	9.5 µM	0.19	–	–	–	–	–	–	–	–	–
CCCCCCCCCc1cc[n+](CC(=O)c2ccc([N+](=O)[O-])cc2)cc1	0.569 µM	0.344 µM	2.06	1.36 µM	1.16	2.52	1.34	0.581 µM	0.42	1.42 µM	2.57	1.97	1.45	0.565	2.87	2.81	1.9	1.54	2.82	1.19
O=c1cc(-c2ccccc2)oc2cc(O)cc(O)c12	–	–	39.6	–	–	37.4	–	–	–	–	64	39.6	37.9	–	33	74.8	54.6	23.4	33.9	–
COc1ccc(-c2nc(C(=O)c3ccccc3)n(CC(=O)c3ccccc3)c2-c2ccc(OC)cc2)cc1	> 100 µM	> 100 µM	> 100	> 100 µM	> 100	> 100	> 100	> 100 µM	> 100	> 100 µM	> 100	> 100	> 100	> 100	> 100	> 100	> 100	> 100	> 100	> 100
CN1CCN(c2ccc(Nc3nc(N)c(C(=O)c4ccc5c(c4)OCCO5)s3)cc2)CC1	4.06 µM	2.27 µM	15.2	4.32 µM	2.86	8.48	3.84	3.33 µM	3.52	1.85 µM	> 25	16.1	7.35	4.77	9.84	10.5	> 25	8.88	6.57	4.08
CS(=O)(=O)CCNCc1ccc(-c2ccc3ncnc(Nc4ccc(OCc5cccc(F)c5)c(C(F)(F)F)c4)c3c2)o1	4.06 µM	4.37 µM	8.96	3.58 µM	5.29	15	3.74	4.73 µM	2.84	4.14 µM	9.12	7.63	7.99	4.51	7.25	7.78	14.9	5.9	8.67	4.02
COc1ccc(/C=C2\CC(C)CC3C2=NN(C(C)=O)C3c2ccc(OC)cc2)cc1 (stereo unspecified)	16.9 µM	25.7 µM	> 100	21.5 µM	21.6	48.2	20.8	18.4 µM	13.9	17.2 µM	38.7	46.5	92.5	30.3	83.9	53.2	38.7	31.3	39.3	16
CC1(C)OB(O)OC1(C)C	–	–	> 100	–	–	> 100	–	–	–	–	> 100	> 100	> 100	–	> 100	> 100	> 100	> 100	> 100	–
COC1=CC23CCCN2CCc2cc4c(cc2C3C1O)OCO4 (stereo unspecified)	–	–	> 100	–	–	> 100	–	–	–	–	> 100	> 100	64.2	–	> 100	> 100	> 100	54	60.1	–
O=S(=O)(SCc1ccccc1)C(c1ccccc1)c1ccccc1	–	–	> 100	–	–	> 100	–	–	–	–	> 100	> 100	36.8	–	57.8	> 100	68.2	51.8	> 100	–
COC(=O)Nc1nc2ccc(C(=O)c3ccc(N(C)C4COC4)cc3)cc2[nH]1	0.36 µM	0.285 µM	> 100	0.337 µM	0.746	> 100	0.745	0.561 µM	0.425	0.846 µM	> 100	> 100	1.03	0.593	4.34	> 100	> 100	3.99	> 100	0.303
N#CSc1c[nH]c2ccc(/C=C/C(=O)/C=C(/C=C/c3ccc4[nH]cc(SC#N)c4c3)OB(F)F)cc12	1.02 µM	0.652 µM	8.04	0.212 µM	2.24	8.68	1.12	0.442 µM	1.37	0.208 µM	1.09	4.82	3.52	2.92	0.653	2.8	3.13	2.93	0.471	0.249
NCCN.NCCN.O=C[O-].O=C[O-].[Co+3].[O-][Cl+3]([O-])([O-])[O-]	> 100 µM	> 100 µM	> 100	> 100 µM	> 100	> 100	> 100	> 100 µM	> 100	> 100 µM	> 100	> 100	> 100	> 100	> 100	> 100	> 100	> 100	> 100	> 100
C[C@@H](CN1CC(=O)NC(=O)C1)N1CC(=O)NC(=O)C1	–	–	754	–	–	1190	–	–	–	–	823	2170	296	–	518	1160	906	543	753	–
O=C(/C=N/O)Nc1cc(Cl)c(Cl)cc1Cl	–	–	54.2	–	–	> 100	–	–	–	–	> 100	84.3	87.4	–	67.8	> 100	94.3	33	> 100	–
CC(=O)C1C(=O)NC(=O)C1=O (stereo unspecified)	–	–	> 100	–	–	> 100	–	–	–	–	> 100	> 100	> 100	–	> 100	> 100	> 100	> 100	> 100	–
CC(C)CC(=O)Nc1n[nH]c2c1CN(C(=O)C1CCN(C)CC1)C2(C)C	0.72 µM	0.331 µM	2.8	0.467 µM	1.9	> 10	1.9	1.27 µM	0.743	> 10 µM	> 10	> 10	2.19	0.524	3.99	> 10	> 10	5.7	> 10	> 10
COc1cc(Nc2ncc(F)c(Nc3ccc4c(n3)NC(=O)C(C)(C)O4)n2)cc(OC)c1OC	0.366 µM and 0.527 µM	2.4 µM and 2.55 µM	> 100	1.94 µM and 1.43 µM	3.85	> 10	3.6	0.667 µM and 2.86 µM	> 100	0.791 µM and 1.36 µM	> 10	> 100	> 100	> 100	> 100	> 10	> 100	> 100	> 100	4.75

— PubChem BioAssay (NCI)
